Reference: patent publication US10821115B2, “Compounds that inhibit Mcl-1 protein” (priority 2017, dated 2020)
Read-outs that look alike come from different tables or passages of the source.

Legend:
[1] = system: human multiple myeloma cell line, OPM-2; test: Cell viability assay (OPM-2 10 FBS), CellTiter-Glo; type: cell-based
Method in brief: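 Serially diluted test compounds are incubated 16 h with cells (3000/well) in RPMI 1640 supplemented with 10% FBS. Viability is then measured by luminescence and IC50 calculated by 4-parameter logistic fit.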

[2] = molecular target: recombinant human Mcl-1 (residues 171-327) / Bim interaction (Homo sapiens (Human), UniProt Q07820); test: biochemical; type: binding; details: read-out: Mcl-1 HTRF IC50
Chain of recombinant human Mcl-1 (residues 171-327) / Bim interaction (Q07820 171-327): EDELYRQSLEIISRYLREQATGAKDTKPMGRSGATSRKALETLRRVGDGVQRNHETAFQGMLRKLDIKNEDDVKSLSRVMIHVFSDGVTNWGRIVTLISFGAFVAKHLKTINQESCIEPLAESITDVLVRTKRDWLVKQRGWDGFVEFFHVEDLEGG

[3] = Homo sapiens, OPM-2, 16 h, read-out: OPM-2 10% FBS IC50 IP, OPM-2 cells, 10% FBS, 16 h, CellTiter-Glo
[4] = TR-FRET, Mcl-1(171-327) / biotin-Bim (51-76)
[5] = read-out: OPM-2 10% FBS IC50 IP, OPM-2 cells, 10% FBS, 16 h, CellTiter-Glo
[6] = Homo sapiens, OPM-2, 16 h, read-out: OPM-2 10% FBS IC50 IP, OPM-2 cells, 10% FBS, 16 h incubation
[7] = 0.1 nM Mcl-1(171-327), 0.05 nM biotin-Bim (51-76)

| SMILES | IC50 [1, 3] [nM] | IC50 [2, 4] [nM] | IC50 [1, 6] [nM] | IC50 [2, 7] [nM] | further results |
| --- | --- | --- | --- | --- | --- |
| CO[C@@]1(CCN2CCCC2)/C=C/C[C@H](C)[C@@H](C)S(=O)(=O)NC(=O)c2ccc3c(c2)N(C[C@@H]2CC[C@H]21)C[C@@]1(CCCc2cc(Cl)ccc21)CO3 [Example 100412, (1S,3′R,6′R,7′S,8′E,11′S,12′R)-6-chloro-7′-methoxy-11′,12′-dimethyl-7′-(2-(1-pyrrolidinyl)ethyl)-3,4-dihydro-2H,15′H-spiro[naphthalene-1,22′-[20]oxa[13]thia[1,14]diazatetracyclo [14.7.2.0~3,6~.0~19,24~]pentacosa[8,16,18,24]tetraen]-15′-one 13′,13′-dioxide] | 249 | 0.097 |  |  |  |
| CO[C@@]1(C[C@H](O)c2ccccn2)/C=C/C[C@H](C)[C@@H](C)S(=O)(=O)NC(=O)c2ccc3c(c2)N(C[C@@H]2CC[C@H]21)C[C@@]1(CCCc2cc(Cl)ccc21)CO3 (single isomer, unassigned) [Example 100490] |  | 0.292 |  |  | IC50 [1, 5]: 511 nM |
| CO[C@@]1(C2SCCCS2)CCC[C@H](C)[C@@H](C)S(=O)(=O)NC(=O)c2ccc3c(c2)N(C[C@@H]2CC[C@H]21)C[C@@]1(CCCc2cc(Cl)ccc21)CO3 [Example 100254, (1S,3′R,6′R,7′S,11′S,12′R)-6-chloro-7′-(1,3-dithian-2-yl)-7′-methoxy-11′,12′-dimethyl-3,4-dihydro-2H,15′H-spiro[naphthalene-1,22′-[20]oxa[13]thia[1,14]diazatetracyclo [14.7.2.0~3,6~.0~19,24~]pentacosa[16,18,24]trien]-15′-one 13′,13′-dioxide] |  | 4.07 |  |  | IC50 [1, 5]: 2150 nM |
| CCO[C@]1(CN2CCN3CCOC[C@@H]3C2)/C=C/C[C@H](C)[C@@H](CC2CCC2)S(=O)(=O)NC(=O)c2ccc3c(c2)N(C[C@@H]2CC[C@H]21)C[C@@]1(CCCc2cc(Cl)ccc21)CO3 [Example 45, (1S,3′R,6′R,7′R,8′E,11′S,12′R)-6-chloro-12′-(cyclobutylmethyl)-7′-ethoxy-7′-((9aS)-hexahydropyrazino[2,1-c][1,4]oxazin-8(1H)-ylmethyl)-11′-methyl-3,4-dihydro-2H,15′H-spiro[naphthalene-1,22′-[20]oxa[13]thia[1,14]diazatetracyclo [14.7.2.0~3,6~.0~19,24~]pentacosa[8,16,18,24]tetraen]-15′-one 13′,13′-dioxide] |  |  | 891 | 0.245 |  |
| CO[C@@]1(C[C@@H](O)C2CC2)/C=C/C[C@H](C)[C@@H](C)S(=O)(=O)NC(=O)c2ccc3c(c2)N(C[C@@H]2CC[C@H]21)C[C@@]1(CCCc2cc(Cl)ccc21)CO3 (racemic) [Example 100437, (1S,3′R,6′R,7′S,8′E,11′S,12′R)-6-chloro-7′-((2R)-2-cyclopropyl-2-hydroxyethyl)-7′-methoxy-11′,12′-dimethyl-3,4-dihydro-2H,15′H-spiro[naphthalene-1,22′-[20]oxa[13]thia[1,14]diazatetracyclo [14.7.2.0~3,6~.0~19,24~]pentacosa[8,16,18,24]tetraen]-15′-one 13′,13′-dioxide] | 531 | 0.073 |  |  |  |
| CO[C@@]1(CN2CCN3CCOC[C@@H]3C2)/C=C/C[C@H](C)[C@@H](CCO)S(=O)(=O)NC(=O)c2ccc3c(c2)N(C[C@@H]2CC[C@H]21)C[C@@]1(CCCc2cc(Cl)ccc21)CO3 [Example 346, (1S,3′R,6′R,7′S,8′E,11′S,12′R)-6-Chloro-7′-((9aS)-hexahydropyrazino[2,1-c][1,4]oxazin-8(1H)-ylmethyl)-12′-(2-hydroxyethyl)-7′-methoxy-11′-methyl-3,4-dihydro-2H, 15′H-spiro[naphthalene-1,22′-[20]oxa[13]thia[1,14]diazatetracyclo[14.7.2.0-3,6˜.0˜19,24˜]pentacosa[8,16,18,24]tetraen]-15′-one 13′,13′-dioxide] |  |  | 66 | 0.062 |  |
| CCCCN1CCN(C[C@]2(OC)/C=C/C[C@H](C)[C@@H](C)S(=O)(=O)NC(=O)c3ccc4c(c3)N(C[C@@H]3CC[C@H]32)C[C@@]2(CCCc3cc(Cl)ccc32)CO4)CC1 [Example 301, (1S,3′R,6′R,7′S,8′E,11′S,12′R)-7′-((4-butyl-1-piperazinyl)methyl)-6-chloro-7′-methoxy-11′,12′-dimethyl-3,4-dihydro-2H,15′H-spiro[naphthalene-1,22′-[20]oxa[13]thia[1,14]diazatetracyclo [14.7.2.0~3,6~.0~19,24~]pentacosa[8,16,18,24]tetraen]-15′-one 13′,13′-dioxide] |  |  | 141 | 0.196 |  |
| CC(C)O[C@]1(CN2CCN3CCOC[C@@H]3C2)/C=C/C[C@H](C)[C@@H](C)S(=O)(=O)NC(=O)c2ccc3c(c2)N(C[C@@H]2CC[C@H]21)C[C@@]1(CCCc2cc(Cl)ccc21)CO3 [Example 47, (1S,3′R,6′R,7′R,8′E,11′S,12′R)-6-chloro-7′-((9aS)-hexahydropyrazino[2,1-c][1,4]oxazin-8(1H)-ylmethyl)-11′,12′-dimethyl-7′-(1-methylethoxy)-3,4-dihydro-2H,15′H-spiro[naphthalene-1,22′-[20]oxa[13]thia[1,14]diazatetracyclo [14.7.2.0~3,6~.0~19,24~]pentacosa[8,16,18,24]tetraen]-15′-one 13′,13′-dioxide] |  |  | 285 | 0.131 |  |
| C[C@@H]1[C@@H](C)CCC[C@](O)(CC(=O)N2CCOCC2)[C@@H]2CC[C@H]2CN2C[C@@]3(CCCc4cc(Cl)ccc43)COc3ccc(cc32)C(=O)NS1(=O)=O (single isomer, unassigned) [Example 100087] | 187 | 0.864 |  |  |  |
| C[C@@H]1[C@@H](C)CCC[C@](C)(CN2CCOCC2)[C@@H]2CC[C@H]2CN2C[C@@]3(CCCc4cc(Cl)ccc43)COc3ccc(cc32)C(=O)NS1(=O)=O [Example 100302, (1S,3′R,6′R,7′S,11′S,12′R)-6-chloro-7′,11′,12′-trimethyl-7′-(4-morpholinylmethyl)-3,4-dihydro-2H,15′H-spiro[naphthalene-1,22′-[20]oxa[13]thia[1,14]diazatetracyclo [14.7.2.0~3,6~.0~19,24~]pentacosa[16,18,24]trien]-15′-one 13′,13′-dioxide] | 4880 | 3.8 |  |  |  |
| CO[C@@]1(CN2CCN(CCO)CC2)/C=C/C[C@H](C)[C@@H](C)S(=O)(=O)NC(=O)c2ccc3c(c2)N(C[C@@H]2CC[C@H]21)C[C@@]1(CCCc2cc(Cl)ccc21)CO3 [Example 300, (1S,3′R,6′R,7′S,8′E,11′S,12′R)-6-chloro-7′-((4-(2-hydroxyethyl)-1-piperazinyl)methyl)-7′-methoxy-11′,12′-dimethyl-3,4-dihydro-2H,15′H-spiro[naphthalene-1,22′-[20]oxa[13]thia[1,14]diazatetracyclo [14.7.2.0~3,6~.0~19,24~]pentacosa[8,16,18,24]tetraen]-15′-one 13′,13′-dioxide] |  |  | 284 | 0.165 |  |
| C[C@@H]1[C@@H](C)CCC[C@@](O)(C2CCN(C)CC2)[C@@H]2CC[C@H]2CN2C[C@@]3(CCCc4cc(Cl)ccc43)COc3ccc(cc32)C(=O)NS1(=O)=O [Example 100382, (1S,3′R,6′R,7′R,11′S,12′R)-6-chloro-7′-hydroxy-11′,12′-dimethyl-7′-(1-methyl-4-piperidinyl)-3,4-dihydro-2H,15′H-spiro[naphthalene-1,22′-[20]oxa[13]thia[1,14]diazatetracyclo [14.7.2.0~3,6~.0~19,24~]pentacosa[16,18,24]trien]-15′-one 13′,13′-dioxide] |  | 0.471 |  |  | IC50 [1, 5]: 312 nM |
| C[C@@H]1[C@@H](C)C/C=C/[C@@](O)(c2cnc(Cl)n2C)[C@@H]2CC[C@H]2CN2C[C@@]3(CCCc4cc(Cl)ccc43)COc3ccc(cc32)C(=O)NS1(=O)=O (single isomer, unassigned) [Example 100551] | 142 | 0.174 |  |  |  |
| C[C@@H]1[C@@H](C)C/C=C/[C@](O)(C#N)[C@@H]2CC[C@H]2CN2C[C@@]3(CCCc4cc(Cl)ccc43)COc3ccc(cc32)C(=O)NS1(=O)=O [Example 100237, (1S,3′R,6′R,7′R,8′E,11′S,12′R)-6-chloro-7′-hydroxy-11′,12′-dimethyl-15′-oxo-3,4-dihydro-2H-spiro[naphthalene-1,22′-[20]oxa[13]thia[1,14]diazatetracyclo [14.7.2.0~3,6~.0~19,24~]pentacosa[8,16,18,24]tetraene]-7′-carbonitrile 13′,13′-dioxide] | 996 | 1.74 |  |  |  |
| CO[C@]1(CN2CCN3CCC(F)(F)C[C@@H]3C2)/C=C/C[C@H](C)[C@@H](C)S(=O)(=O)NC(=O)c2ccc3c(c2)N(C[C@@H]2CC[C@H]21)C[C@@]1(CCCc2cc(Cl)ccc21)CO3 (single isomer, unassigned) [Example 298] |  |  |  | 0.279 | IC50 ([1]; read-out: OPM-2 10% FBS IC50 IP, OPM-2 cells, 10% FBS, 16 h incubation): 262 nM |
| CO[C@@]1(CC=O)/C=C/C[C@H](C)[C@@H](C)S(=O)(=O)NC(=O)c2ccc3c(c2)N(C[C@@H]2CC[C@H]21)C[C@@]1(CCCc2cc(Cl)ccc21)CO3 [Example 100323, ((1S,3′R,6′R,7′S,8′E,11′S,12′R)-6-chloro-7′-methoxy-11′,12′-dimethyl-13′,13′-dioxido-15′-oxo-3,4-dihydro-2H-spiro[naphthalene-1,22′-[20]oxa[13]thia[1,14]diazatetracyclo [14.7.2.0~3,6~.0~19,24~]pentacosa[8,16,18,24]tetraen]-7′-yl)acetaldehyde] | 1250 | 0.477 |  |  |  |
